Measurements as given in patent US20210388364A1, “METHOD FOR DETECTING A SPECIFIC SPLICE EVENT OF A GENE OF INTEREST” (Helmholtz Zentrum Müncher - Deutsches Forschungszentrum Für …, priority 2019, published 2021).

Experiments:
[1] = test system: HEK-293T cells; assay: Blasticidin-S survival selection of HEK-293T cells with or without bsd-intein in FOXP1 exon 18b; type: cell-based, human
Excerpt: To knock-out MBNL1/2 (mucleblind-like protein 1/2, SEQ ID NO: 62 and SEQ ID NO: 63) in HEK293T cell cells which carries a blasticidin resistance gene flanked by inteins within the FOXP1 exon 18b, two plasmids expressing a mammalian codon-optimized Cas9 from S. pyogenes (SpCas9, SpyCas9) with a tandem C-terminal SV40 nuclear localization signal (SV40 NLS) via a CBh hybrid RNA-polymerase II promoter and human U6 driving a single-guide-RNA (sgRNA, gRNA) for SpyCas9 (SEQ ID NO: 23) with a cloned protospacer targeting MBNL1 and MBNL2 were co-transfected into the cells. 72 h later, cells were replated in a proper format and medium were supplemented with indicated blasticidin concentration. Control condition were transfected with the same conditions but the sgRNA is targeting the control locus AAVS1 (PPP1R12C) (safe-harbor locus AAVSI intronic region, SEQ ID NO. 64). Genomic DNA was isolated from blasticidin-treated surviving colonies with Wizard® Genomic DNA Purification Kit (Promega).
Next, the inventors checked whether the KO of reported suppressors of FOXP1 exon 18b by knocking out their constitutive exon of MBNL1 and MBNL2 are able to confer survival of the cells upon treatment with bs compared to a control condition where gRNA targeting the safe-harbor AAVS1 locus (PPP1R12C) was transfected instead. […]

[2] = test system: Oaz1; assay: FACS analysis of Oaz1-EXSISERS-transfected cells treated with polyamines (ribosomal frameshift readout); type: cell-based; conditions: increasing polyamine concentrations, verified by immunoblot
Excerpt: FIG. 7: Non-invasive protein-level quantification of co-translation regulation. […] Rising polyamine levels lead to a +1 frameshift and skipping of the in-frame stop codon leading to the full-length Oaz1 antizyme. The usage of the in-frame stop codon will otherwise lead to truncated non-functional Oaz1. Full-length Oaz1 binds and inactivates the enzyme Odc, the rate-limiting enzyme in the polyamine biosynthesis pathway, resulting in a product-mediated closed-loop homeostatic regulation of polyamine levels. […] Transfected (blue cells) cells were analyzed by counting the fraction of blue cells passing the green gate which is set to contain the 25% greenest cells in the untreated condition (0 mM).
Ribosomal frameshift-mediated regulations cannot be monitored by RT-qPCR or other RNA-based quantification methods. Exemplary, Oaz1, […] (FIG. 7a) was chosen, since it was known to be regulated by polyamine. gp41-1 split-inteins-flanked mNeonGreen and NrdJ-1-split-inteins-flanked mTagBFP2 were inserted into the full-length Oaz1 gene and transfected cells were treated with increasing polyamine concentrations to determine whether frameshift regulation could be read out via fluorescence quantification (FIG. 7b).

Compound	cell survival ([1]; bs 5 to 12.5 μg/mL, reporter cells, control gRNA targeting AAVS1)	cell survival ([1]; unmodified HEK-293T cells, targeting MBNL1 and MBNL2 or AAVS1)	stop codon readthrough [2]
CN(CC[C@H](N)CC(=O)N[C@H]1C=C[C@H](n2ccc(N)nc2=O)O[C@@H]1C(=O)O)C(=N)N [bs, blasticidin-S]	no survival	no cells survived	
NCCCCNCCCN [spermidine]			stimulated
NCCCNCCCCNCCCN [spermine]			stimulated
